Key:
[1] = test system: tomato spotted wilt virus; assay: Induced resistance of tobacco to tomato spotted wilt virus infection; assay type: in vivo; details: for Relative immune effect / Disease index: tobacco; for Content of virus protein: tobacco leaves, 3 days, Western blot, relative
Description: Tomato spotted wilt virus was obtained from Yunnan Province, China. The initial virus source was stored in a refrigerator at −80° C. Nicotiana benthamiana leaves were inoculated with the virus by mechanical inoculation to activate the virus. Viral plasmids were extracted and transformed by competent cells of Escherichia coli. The competent cells were spread on a resistant plate and cultured. Single colonies were selected for PCR screening. Positive colonies were selected for sequencing and subsequent plasmid extraction. Plasmids with normal sequencing were added to competent cells of Agrobacterium, and the Agrobacterium was transformed by electroporation. A solution of the transformed Agrobacterium was spread on the correspondingly resistant screening plate, and cultured at 28° C. (±1) for 48 h. Single colonies of the Agrobacterium on the transformation plate were selected, placed in 5 mL of correspondingly resistant LB medium, and cultured overnight at 28° C. and 180 rpm. Bacterial cells were collected by 2 min of centrifugation at 6,000 rpm, and suspended with an Agrobacterium treatment buffer solution (10 mM MgCl2, 10 mM MES, 10 μM Acetosyringone) until the OD600 value of the suspension was 0.5, and the suspension was treated at 28° C. for 3 h in dark for use.
2-amino-3-methylhexanoic acid was dissolved in distilled water and then diluted with distilled water by gradient into solutions of 0 nM, 0.5 nM, 1 nM and 10 nM. Nicotiana benthamiana seeds were sowed in a small pot, and cultured at 22 (±1)° C., 16 h/8 h light for 5 weeks. Healthy tobacco plants (preferably with 8-10 leaves) were selected and treated with the 2-amino-3-methylhexanoic acid solutions of the above concentrations to conduct spray treatment on the stems and leaves. The treatment was repeated once after 24 h and conducted twice in total. After 24 h, the Agrobacterium solution with a uniform concentration was extracted using a 1 mL syringe, the injection port of the syringe was pressed directly on a small hole on the back of a tobacco leaf, and the bacterial solution was slowly pushed to soak the whole leaf. The soaked tobacco was moved to an environment of 22 (±1)° C. and cultured under 16 h/8 h light. 3 days later, microscopic observation was conducted. At the same time, samples were taken. The gray scale of protein bands was analyzed by Western blot combined with ImageJ software, and the relative protein content of the virus in the leaves was determined. The incidence of tobacco leaves was observed 15 days later, and the disease indexes were recorded according to the Grade and Investigation Method of Tobacco Diseases and Insect Pests (GB/T23222-2008) using a formula as follows: […]
Grading standard of tomato spotted wilt virus infection (grading and investigation were conducted per plant): • Grade 0: The whole plant is disease free. • Grade 1: Heart leaves have clear veins or are slightly mottled, and the diseased plant is not obviously dwarfed. • Grade 3: One-third of leaves are mottled without deformation, or the diseased plant is dwarfed to three quarters or more of a normal plant in height. • Grade 5: One-third to one-half of leaves are mottled, or a few leaves are deformed, or the main veins become black, or the plant is dwarfed to two-thirds to three-quarters of a normal plant in height. • Grade 7: One-half to two-thirds of leaves are mottled or deformed, or a few main and lateral veins become necrotic, or the plant is dwarfed to one-half to two-thirds of a normal plant in height. • Grade 9: The leaves of the whole plant are mottled, seriously deformed or necrotic, or the diseased plant is dwarfed to […] of a normal plant in height.

powdery mildew fungus = assay: Induced resistance of wheat to powdery mildew fungus infection; assay type: in vivo
Description: 2-amino-3-methylhexanoic acid was dissolved in distilled water and diluted with distilled water into solutions of 1 nM, 10 nM, 100 nM, 1,000 nM and 10,000 nM by gradient, and blank control was additionally set. Wheat seeds were germinated, planted in a sterilized soil culture pot and cultured in a greenhouse at 23(±1)° C. with light for 12 h. When the seedlings grew to the stage of one leaf and one bud, the stems and leaves of the wheat seedlings were sprayed with the 2-amino-3-methylhexanoic acid solutions of the above concentrations. The treatment was repeated once after 24 h and conducted twice in total. After 24 h, fresh wheat powdery mildew spores were evenly scattered on the wheat leaves in three pots, with 20 plants per pot. After 10 days, the disease grade of wheat treated at each concentration was investigated. The disease degree was recorded according to the wheat powdery mildew grading standard in the Guidelines for the Field Efficacy Trials of Pesticides (I), and the disease index and relative immune effect were calculated by a method the same as that for calculating the disease index and relative immune effect of tomato spotted wilt. At the same time, the middle segment of the last but one leaf of wheat was taken and the distribution of mycelia on the wheat leaves was observed by referring to Wolf and Fric's rapid staining method of powdery mildew. Grading standard of wheat powdery mildew (per leaf): • Grade 1: The diseased spot area accounts for 5% or less of the whole leaf area. • Grade 3: The diseased spot area accounts for 6-15% of the whole leaf area. • Grade 5: The diseased spot area accounts for 16-25% of the whole leaf area. • Grade 7: The diseased spot area accounts for 26-50% of the whole leaf area. • Grade 9: The diseased spot area accounts for 50% or more of the whole leaf area.

Escherichia coli K-12 = details: cited from earlier work
"Sikang 1" cotton = assay: Induced resistance of cotton to salt stress; assay type: in vivo; details: 100 mM NaCl, three days
Description: The experimental material was “Sikang 1” cotton, which was cultured in water in a 500 mL plastic cup, and a ½ Hoagland nutrient solution was changed every three days. When the cotton seedling grew until the second true leaf fully unfolded, the leaf surface was sprayed with 2-amino-3-methylhexanoic acid solutions. The concentrations of 0, 1, 10, 100 and 1,000 nM were set in the experiment, and 0.02% Tween 20 was added as a surfactant. The spraying was repeated once after 24 h and conducted twice in total. On the second day after the treatment, NaCl was added to the ½ Hoagland nutrient solution to a final concentration of 100 mM to conduct salt stress treatment. There were three repetitions in each treatment group. Rehydration treatment was conducted after three days of salt stress, the salt injury symptoms of cotton were observed, and the salt injury index was calculated by a formula as follows: […]

[2] = each concentration in range 0.5-10 nM
[3] = concentration greater than 1,000 nM, susceptible wheat variety

CCCC(C)C(N)C(=O)O (stereo not shown) [2-amino-3-methylhexanoic acid]
Relative immune effect ([1]; 0.5 nM): 59.06% | Relative immune effect ([1]; 1 nM): 52.36% | Content of virus protein ([1]; 1 nM): 0.33 ± 0.001c | Disease index ([1]; 1 nM, 15 days after inoculation): 44.81 ± 3.90c | Relative immune effect ([1]; 10 nM): 22.05% | Content of virus protein ([1]; 10 nM): 0.44 ± 0.007b | Disease index ([1]; 10 nM, 15 days after inoculation): 73.33 ± 2.22b | Disease index [1, 2]: lower than 75 | Relative immune effect [1, 2]: ≥ 20% | Relative immune effect (powdery mildew fungus; 1 nM, wheat): 3.5% | Relative immune effect (powdery mildew fungus; 10 nM, wheat): 15.56% | Relative immune effect (powdery mildew fungus; 100 nM, wheat): 27.63% | Relative immune effect (powdery mildew fungus; 1,000 nM, wheat): 55.06% | Relative immune effect (powdery mildew fungus; 10,000 nM, wheat): 65.37% | Disease index (powdery mildew fungus; [3]): lower than 50 | Relative immune effect (powdery mildew fungus; [3]): more than 50% | Inhibitory effect (Escherichia coli K-12): obvious inhibitory effect | Death rate ("Sikang 1" cotton; 1 nM): 50% | Salt injury index ("Sikang 1" cotton; 1 nM): 67% | Death rate ("Sikang 1" cotton; 10 nM): 50% | Salt injury index ("Sikang 1" cotton; 10 nM): 63% | Death rate ("Sikang 1" cotton; 100 nM): 33% | Salt injury index ("Sikang 1" cotton; 100 nM): 56% | Death rate ("Sikang 1" cotton; 1,000 nM): 33% | Salt injury index ("Sikang 1" cotton; 1,000 nM): 47%

Reference: patent US20240057598A1, “USE OF 2-AMINO-3-METHYLHEXANOIC ACID AS PLANT IMMUNITY INDUCER” (NANJING AGRICULTURAL UNIVERSITY, priority 2020, published 2024)
